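Tested at 5 concentrations; 48 h exposure; 96-well plates; endpoints linearly interpolated, else capped at highest concentration. GI50: concentration for 50% inhibition of growth. TGI marks complete inhibition of growth.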
Legend:
Assay in all cases: growth of human tumour cells (NCI), 48 h
M14 melanoma = tested on: M14 melanoma
TK-10 renal = tested on: TK-10 renal
ACHN renal = tested on: ACHN renal
EKVX NSCLC = tested on: EKVX NSCLC
NCI-H23 lung = tested on: NCI-H23 lung
RPMI-8226 leukemia = tested on: RPMI-8226 leukemia
HS 578T breast = tested on: HS 578T breast
U251 CNS = tested on: U251 CNS
OVCAR-8 ovarian = tested on: OVCAR-8 ovarian
LOX IMVI melanoma = tested on: LOX IMVI melanoma
SR leukemia = tested on: SR leukemia
NCI/ADR-RES ovarian = tested on: NCI/ADR-RES ovarian
SK-MEL-28 melanoma = tested on: SK-MEL-28 melanoma
COLO 205 colon = tested on: COLO 205 colon
NCI-H522 lung = tested on: NCI-H522 lung
CCRF-CEM leukemia = tested on: CCRF-CEM leukemia
MALME-3M melanoma = tested on: MALME-3M melanoma
UACC-62 melanoma = tested on: UACC-62 melanoma
A549 NSCLC = tested on: A549 NSCLC
KM12 colon = tested on: KM12 colon
OVCAR-4 ovarian = tested on: OVCAR-4 ovarian
NCI-H226 lung = tested on: NCI-H226 lung
OVCAR-3 ovarian = tested on: OVCAR-3 ovarian
SNB-19 CNS = tested on: SNB-19 CNS
SK-MEL-5 melanoma = tested on: SK-MEL-5 melanoma
IGROV1 ovarian = tested on: IGROV1 ovarian
RXF 393 renal = tested on: RXF 393 renal
PC-3 prostate = tested on: PC-3 prostate
SF-539 CNS = tested on: SF-539 CNS
BT-549 breast = tested on: BT-549 breast
T-47D breast = tested on: T-47D breast
MOLT-4 leukemia = tested on: MOLT-4 leukemia
HT29 colon = tested on: HT29 colon
SF-268 CNS = tested on: SF-268 CNS
CAKI-1 renal = tested on: CAKI-1 renal
MDA-MB-231 breast = tested on: MDA-MB-231 breast
UO-31 renal = tested on: UO-31 renal
MCF7 breast = tested on: MCF7 breast
786-0 renal = tested on: 786-0 renal
SNB-75 CNS = tested on: SNB-75 CNS
HL-60(TB) leukemia = tested on: HL-60(TB) leukemia
MDA-MB-435 = tested on: MDA-MB-435
HOP-92 NSCLC = tested on: HOP-92 NSCLC
HCT-15 colon = tested on: HCT-15 colon
SF-295 CNS = tested on: SF-295 CNS
HOP-62 NSCLC = tested on: HOP-62 NSCLC
HCT-116 colon = tested on: HCT-116 colon
NCI-H460 lung = tested on: NCI-H460 lung
SK-MEL-2 melanoma = tested on: SK-MEL-2 melanoma
HCC-2998 colon = tested on: HCC-2998 colon
OVCAR-5 ovarian = tested on: OVCAR-5 ovarian
K-562 leukemia = tested on: K-562 leukemia
SN12C renal = tested on: SN12C renal
UACC-257 melanoma = tested on: UACC-257 melanoma
SK-OV-3 ovarian = tested on: SK-OV-3 ovarian
SW-620 colon = tested on: SW-620 colon
DU-145 prostate = tested on: DU-145 prostate

O=C(OCC1OC(n2cc(C(F)(F)F)c(=O)[nH]c2=O)CC1OC(=O)c1ccc([N+](=O)[O-])cc1)c1ccc([N+](=O)[O-])cc1 (centres undefined)
GI50 (M14 melanoma): 1.96 µM
TGI (M14 melanoma): 7.82 µM
GI50 (TK-10 renal): > 100 µM
TGI (TK-10 renal): > 100 µM
GI50 (ACHN renal): 1.17 µM
TGI (ACHN renal): > 100 µM
GI50 (EKVX NSCLC): > 100 µM
TGI (EKVX NSCLC): > 100 µM
GI50 (NCI-H23 lung): > 100 µM
TGI (NCI-H23 lung): > 100 µM
GI50 (RPMI-8226 leukemia): 2.12 µM
TGI (RPMI-8226 leukemia): > 100 µM
GI50 (HS 578T breast): > 100 µM
TGI (HS 578T breast): > 100 µM
GI50 (U251 CNS): 9.08 µM
TGI (U251 CNS): > 100 µM
GI50 (OVCAR-8 ovarian): 6.91 µM
TGI (OVCAR-8 ovarian): > 100 µM
GI50 (LOX IMVI melanoma): 4.81 µM
TGI (LOX IMVI melanoma): > 100 µM
GI50 (SR leukemia): 11.3 µM
TGI (SR leukemia): > 100 µM
GI50 (NCI/ADR-RES ovarian): 16.7 µM
TGI (NCI/ADR-RES ovarian): > 100 µM
GI50 (SK-MEL-28 melanoma): > 100 µM
TGI (SK-MEL-28 melanoma): > 100 µM
GI50 (COLO 205 colon): > 100 µM
TGI (COLO 205 colon): > 100 µM
GI50 (NCI-H522 lung): 5.65 µM
TGI (NCI-H522 lung): > 100 µM
GI50 (CCRF-CEM leukemia): 3.86 µM
TGI (CCRF-CEM leukemia): > 100 µM
GI50 (MALME-3M melanoma): 92.3 µM
TGI (MALME-3M melanoma): > 100 µM
GI50 (UACC-62 melanoma): 1.41 µM
TGI (UACC-62 melanoma): > 100 µM
GI50 (A549 NSCLC): 4.95 µM
TGI (A549 NSCLC): > 100 µM
GI50 (KM12 colon): > 100 µM
TGI (KM12 colon): > 100 µM
GI50 (OVCAR-4 ovarian): 54.7 µM
TGI (OVCAR-4 ovarian): > 100 µM
GI50 (NCI-H226 lung): 9.42 µM
TGI (NCI-H226 lung): > 100 µM
GI50 (OVCAR-3 ovarian): 23.8 µM
TGI (OVCAR-3 ovarian): > 100 µM
GI50 (SNB-19 CNS): > 100 µM
TGI (SNB-19 CNS): > 100 µM
GI50 (SK-MEL-5 melanoma): 4.55 µM
TGI (SK-MEL-5 melanoma): > 100 µM
GI50 (IGROV1 ovarian): 25.4 µM
TGI (IGROV1 ovarian): > 100 µM
GI50 (RXF 393 renal): 4.54 µM
TGI (RXF 393 renal): > 100 µM
GI50 (PC-3 prostate): 8.74 µM
TGI (PC-3 prostate): > 100 µM
GI50 (SF-539 CNS): 2.03 µM
TGI (SF-539 CNS): > 100 µM
GI50 (BT-549 breast): 7.42 µM
TGI (BT-549 breast): > 100 µM
GI50 (T-47D breast): 7.88 µM
TGI (T-47D breast): > 100 µM
GI50 (MOLT-4 leukemia): 14.8 µM
TGI (MOLT-4 leukemia): > 100 µM
GI50 (HT29 colon): > 100 µM
TGI (HT29 colon): > 100 µM
GI50 (SF-268 CNS): 3.87 µM
TGI (SF-268 CNS): > 100 µM
GI50 (CAKI-1 renal): 3.29 µM
TGI (CAKI-1 renal): > 100 µM
GI50 (MDA-MB-231 breast): > 100 µM
TGI (MDA-MB-231 breast): > 100 µM
GI50 (UO-31 renal): 3.77 µM
TGI (UO-31 renal): > 100 µM
GI50 (MCF7 breast): 1.26 µM
TGI (MCF7 breast): > 100 µM
GI50 (786-0 renal): 3.11 µM
TGI (786-0 renal): 18.6 µM
GI50 (SNB-75 CNS): 8.92 µM
TGI (SNB-75 CNS): > 100 µM
GI50 (HL-60(TB) leukemia): 7.37 µM
TGI (HL-60(TB) leukemia): > 100 µM
GI50 (MDA-MB-435): 2.36 µM
TGI (MDA-MB-435): > 100 µM
GI50 (HOP-92 NSCLC): 8.55 µM
TGI (HOP-92 NSCLC): > 100 µM
GI50 (HCT-15 colon): 20.8 µM
TGI (HCT-15 colon): > 100 µM
GI50 (SF-295 CNS): 3.72 µM
TGI (SF-295 CNS): > 100 µM
GI50 (HOP-62 NSCLC): 8.97 µM
TGI (HOP-62 NSCLC): > 100 µM
GI50 (HCT-116 colon): 8.5 µM
TGI (HCT-116 colon): > 100 µM
GI50 (NCI-H460 lung): 3.43 µM
TGI (NCI-H460 lung): > 100 µM
GI50 (SK-MEL-2 melanoma): > 100 µM
TGI (SK-MEL-2 melanoma): > 100 µM
GI50 (HCC-2998 colon): 5.38 µM
TGI (HCC-2998 colon): > 100 µM
GI50 (OVCAR-5 ovarian): 41.8 µM
TGI (OVCAR-5 ovarian): > 100 µM
GI50 (K-562 leukemia): 94 µM
TGI (K-562 leukemia): > 100 µM
GI50 (SN12C renal): 4.28 µM
TGI (SN12C renal): > 100 µM
GI50 (UACC-257 melanoma): 2.7 µM
TGI (UACC-257 melanoma): > 100 µM
GI50 (SK-OV-3 ovarian): 8.51 µM
TGI (SK-OV-3 ovarian): > 100 µM
GI50 (SW-620 colon): 6.2 µM
TGI (SW-620 colon): > 100 µM
GI50 (DU-145 prostate): 0.885 µM
TGI (DU-145 prostate): > 100 µM

From PubChem BioAssay (NCI)
